This passage reports agonist activity results from US20250206754A1, “PAN-CHEMOKINE ANTAGONISTS FOR USE IN TREATING CANCER AND IMMUNE DISORDERS” ("Micar Innovation" LTD., priority 2022, published 2025).

The assay deals with T1, CCR7 (Homo sapiens, UniProt P32248).
T1 construct: expressed in transfected cells
T1 sequence (P32248 25-378): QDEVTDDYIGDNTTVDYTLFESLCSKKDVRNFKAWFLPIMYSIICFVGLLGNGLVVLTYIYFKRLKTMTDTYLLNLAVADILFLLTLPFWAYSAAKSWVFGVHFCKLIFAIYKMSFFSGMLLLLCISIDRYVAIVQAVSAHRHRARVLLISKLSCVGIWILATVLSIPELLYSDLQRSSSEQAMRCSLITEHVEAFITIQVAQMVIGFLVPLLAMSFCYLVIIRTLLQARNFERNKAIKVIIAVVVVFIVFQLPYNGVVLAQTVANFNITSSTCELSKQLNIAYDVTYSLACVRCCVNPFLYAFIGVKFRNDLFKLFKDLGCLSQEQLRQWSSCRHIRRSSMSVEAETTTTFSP
Put plainly: TANGO β-arrestin agonist assay, CCR7. It is filed as cell-based. How it is done: Selected compounds were initially sent for both antagonist and agonist TANGO β-arrestin assays. […] Replacement only on the amide group with CN led to strong activity decrease in β-arrestin assay: only 31% activity at about 30 μM and similar one at 100 μM (Table 1). Five more derivatives with replaced amide group were also tested in parallel by Ca^2+ mobilization assay and they all were not active up to the tested concertation of 100 μM.

Regarding `NC(=O)c1ccccc1Oc1ncnc2sc(-c3ccccc3)cc12` [Hit 1, 2-({6-phenylthieno[2,3-d]pyrimidin-4-yl}oxy)benzamide], the agonist activity entry is listed as “no any agonist activity”.
